Reference: PubChem BioAssay AID328 (DTP/NCI, 2004)
Several values for one entry are separate records, joined by “and”; a condition that tells them apart may be missing. Equal entries are not always repeated. Toxic doses and inconclusive results are not listed.

Tested on: BDF1 mice, P388 leukemia ip, median survival T/C
Assay: NCI In Vivo Anticancer Drug Screen. Data for tumor model P388 Leukemia (intraperitoneal) in B6D2F1 (BDF1) mice
Conditions: endpoint: median survival time, higher = longer survival
Method in brief: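 Reported as T/C, where T is the survival measurement in dosed animals and C the same measurement in vehicle controls.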

[1] = dose: 25.0 mg/kg/injection, schedule: Q01DX009 (ip), vehicle: Klucel (hydroxypropylcellulose) (HPC)
[2] = dose: 50.0 mg/kg/injection, schedule: Q01DX009 (ip), vehicle: Klucel (hydroxypropylcellulose) (HPC)
[3] = dose: 100.0 mg/kg/injection, schedule: Q01DX009 (ip), vehicle: Klucel (hydroxypropylcellulose) (HPC)
[4] = dose: 25.0 mg/kg/injection, schedule: Q01DX009 (ip), vehicle: saline with Tween-80
[5] = dose: 100.0 mg/kg/injection, schedule: Q01DX009 (ip), vehicle: saline with Tween-80

CCCc1nc2c(OC)ccc(OC)c2nc1C
T/C [1]: 100 % of control
T/C [2]: 100 % of control
T/C [3]: 100 % of control
T/C (dose: 150.0 mg/kg/injection, schedule: Q01DX009 (ip), vehicle: Klucel (hydroxypropylcellulose) (HPC)): 90 % of control

CCC(C)(CCC(=O)O)c1ccccc1 (configuration not stated)
T/C (dose: 100.0 mg/kg/injection, schedule: Q04DX002 (ip), vehicle: saline with Tween-80): 97 % of control
T/C (dose: 200.0 mg/kg/injection, schedule: Q04DX002 (ip), vehicle: saline with Tween-80): 103 % of control
T/C (dose: 400.0 mg/kg/injection, schedule: Q04DX002 (ip), vehicle: saline with Tween-80): 106 % of control

COc1ccc(CN(CCO)C(C)=O)cc1
T/C (dose: 100.0 mg/kg/injection, schedule: Q01DX009 (ip), vehicle: saline): 102 % of control
T/C (dose: 100.0 mg/kg/injection, schedule: Q04DX003 (ip), vehicle: saline): 100 % of control
T/C (dose: 200.0 mg/kg/injection, schedule: Q01DX009 (ip), vehicle: saline): 109 % of control
T/C (dose: 200.0 mg/kg/injection, schedule: Q04DX003 (ip), vehicle: saline): 100 % of control
T/C (dose: 400.0 mg/kg/injection, schedule: Q01DX009 (ip), vehicle: saline): 115 % of control
T/C (dose: 400.0 mg/kg/injection, schedule: Q04DX003 (ip), vehicle: saline): 95 % of control

COC(=O)C(N)CSCSCc1ccccc1 (configuration not stated)
T/C (dose: 6.25 mg/kg/injection, schedule: Q04DX003 (ip), vehicle: water): 109 % of control
T/C (dose: 12.5 mg/kg/injection, schedule: Q04DX003 (ip), vehicle: water): 113 % of control
T/C (dose: 25.0 mg/kg/injection, schedule: Q04DX003 (ip), vehicle: water): 104 % of control
T/C (dose: 50.0 mg/kg/injection, schedule: Q04DX003 (ip), vehicle: water): 100 % of control
T/C (dose: 100.0 mg/kg/injection, schedule: Q04DX003 (ip), vehicle: water): 100 % of control

COc1ccc2nc3cc(Cl)ccc3c(NC(C)CCCN(CCCl)CCCl)c2c1 (configuration not stated)
T/C (dose: 0.17 mg/kg/injection, schedule: Q04DX003 (ip), vehicle: saline): 110 % of control
T/C (dose: 0.25 mg/kg/injection, schedule: Q01DX009 (ip), vehicle: saline): 154 % of control
T/C (dose: 0.4 mg/kg/injection, schedule: Q01DX009 (ip), vehicle: saline): 162 % of control
T/C (dose: 0.62 mg/kg/injection, schedule: Q01DX009 (ip), vehicle: saline): 159 % of control and 166 % of control
T/C (dose: 0.93 mg/kg/injection, schedule: Q01DX009 (ip), vehicle: saline): 87 % of control and 100 % of control
T/C (dose: 1.0 mg/kg/injection, schedule: Q01DX009 (ip), vehicle: saline): 118 % of control
T/C (dose: 4.0 mg/kg/injection, schedule: Q01DX009 (ip), vehicle: saline): 95 % of control
T/C (dose: 62.5 micrograms/kg/injection, schedule: Q01DX009 (ip), vehicle: saline): 95 % of control
T/C (dose: 125.0 micrograms/kg/injection, schedule: Q01DX009 (ip), vehicle: saline): 113 % of control
T/C (dose: 500.0 micrograms/kg/injection, schedule: Q01DX009 (ip), vehicle: saline): 168 % of control
T/C (dose: 1000.0 micrograms/kg/injection, schedule: Q01DX009 (ip), vehicle: saline): 150 % of control

CN1C(=O)N(C)C(=O)C(C)(C2(C)C(=O)N(C)C(=O)N(C)C2=O)C1=O
T/C (dose: 100.0 mg/kg/injection, schedule: Q01DX001 (ip), vehicle: saline with Tween-80): 100 % of control
T/C (dose: 200.0 mg/kg/injection, schedule: Q01DX001 (ip), vehicle: saline with Tween-80): 99 % of control
T/C (dose: 400.0 mg/kg/injection, schedule: Q01DX001 (ip), vehicle: saline with Tween-80): 90 % of control

CCCCS(=O)/C=C\C(=O)NCCC (configuration not stated)
T/C [4]: 100 % of control
T/C (dose: 50.0 mg/kg/injection, schedule: Q01DX009 (ip), vehicle: saline with Tween-80): 99 % of control
T/C [5]: 100 % of control

CCOC(=O)CNC(=O)Sc1ccc(C(C)(C)C)cc1
T/C [1]: 121 % of control
T/C (dose: 200.0 mg/kg/injection, schedule: Q01DX009 (ip), vehicle: Klucel (hydroxypropylcellulose) (HPC)): 108 % of control

CCN(CC)c1ccc(C2NC(=O)c3ccccc3N2)cc1 (configuration not stated)
T/C [1]: 110 % of control
T/C [2]: 120 % of control
T/C [3]: 95 % of control

CCCCC/C(C=C(C#N)C#N)=C/c1ccccc1
T/C [4]: 100 % of control
T/C [5]: 119 % of control
